Experimental data taken from patent publication US9675623B2, “Non-surgical method of treatment for cataract” (THE REGENTS OF THE UNIVERSITY OF MICHIGAN, priority 2012, dated 2017).
Changes are numbered by the printed parent chain. Several values for one entry are separate records, joined by “and”; a condition that tells them apart may be missing. Equal entries are not always repeated.

What was measured:
R120G cryAB [1] = molecular target: T1, R120G cryAB (Homo sapiens, UniProt P02511, R120G); test: Differential scanning fluorimetry (DSF), shift of apparent Tm; assay type: binding; conditions: DSF with R120G cryAB; for ACTIVITY (shift in thermal stability at 100 μM): 100 μM compound
T1 sequence (P02511 1-175 R120G): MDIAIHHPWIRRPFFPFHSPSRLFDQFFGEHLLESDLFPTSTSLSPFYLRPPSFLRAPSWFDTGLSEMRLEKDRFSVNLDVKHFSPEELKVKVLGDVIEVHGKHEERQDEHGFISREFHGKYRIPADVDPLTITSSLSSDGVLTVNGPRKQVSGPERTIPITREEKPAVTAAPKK
Description: Differential scanning fluorimetry (DSF) was utilized to identify compounds that stabilize cryAB. In DSF experiments, the melting transition (Tm) of the protein target is measured in the presence of potential ligands (Cummings et al., J Biomol Screen 11, 854 (2006). DSF measures thermal unfolding of the target protein via the fluorescence of intrinsic tryptophans, or (more commonly) a dye, such as 1,8-anilinonapthalenesulfonic (bis-ANS) or Sypro Orange. Binding of a ligand adds free energy to the folded state or key intermediates, which limits unfolding and shifts the apparent Tm. These values are used to calculate the unfolding transition. When compounds bind to the target prior to heating, they stabilize against unfolding, shifting the ΔTm. […] (3).

R120G cryAB [2] = molecular target: T1, R120G cryAB; test: Amyloid formation / aggregation measured by electron microscopy and visual inspection; assay type: biochemical
Description: To test this idea, R120G cryAB (15 μM) was treated with 5-cholesten-3b,25-diol or cholesterol (100 μM) and its ability to aggregate was measured by electron microscopy.

cryAB = molecular target: T2, cryAB (Mus musculus, UniProt P23927, R120G); test: Excised eyes from R120G cryAB knock-in mice treated with compound; conditions: 100 μM, versus saline control
T2 construct: from tissue; host or cells: excised eyes of R120G cryAB knock-in mice
T2 sequence (P23927 1-175 R120G): T1 sequence (P02511 1-175 R120G) with P39S, S41A, F61I, T170A
Description: The R120G cryAB knock-in mouse is a clinically-acceptable model of aging-associated and hereditary cataract. The animal model develops severe cataracts within 20 weeks (Andley et al., PLoS One 6, e17671 (2011)). Excised eyes from these mice were treated with 5-cholesten-3b,25-diol (100 μM) or a saline control.

[3] = test system: R120G cryAB knock-in mice; test: Eye drops to live R120G cryAB knock-in mice; slit lens illumination and GPC/light scattering of lens homogenates; assay type: in vivo, mouse; conditions: 5 mM in saline-cyclodextrin, eye dropper three times a week for two weeks
R120G cryAB [4] = molecular target: T1, R120G cryAB; test: 15N HSQC NMR binding site mapping; conditions: 15N HSQC NMR chemical shifts
α-crystallin = test: Gel filtration (GPC) analysis of α-crystallin solubility, treated versus fellow untreated eye; assay type: in vivo, mice
Description: 5-cholesten-3b,25-diol formulated in a saline-cyclodextrin solution (5 mM cyclodextran; 5 mM 5-cholesten-3b,25-diol) was delivered by eye dropper three times a week for two weeks to live mice (n=15). Gel filtration analysis of α-crystallin solubility was conducted by processing samples as previously described by Andley et al. (PLoS ONE, 6:3, 1-13 (2011)). Briefly, degree of aggregation of α-crystallin was determined using gel permeation chromatography (GPC) with light scattering and refractive index (RI) measurements. All data were analyzed using SAS version 9.3 (SAS Institute; Cary, N.C.). To control for differences in assay sensitivity among animals, the area under the curve for α-crystallin in the drug treated eye was compared to the area under the curve generated from the fellow untreated eye and expressed as “percent” difference in area using the untreated eye as the denominator. The percent difference between treated and untreated eyes was compared using the Wilcoxon signed rank test for the null hypothesis of no difference. The association between age and percent difference was calculated using the Spearman rank correlation coefficient. Non-parametric statistical models were used to protect from departures from normality.

R120G cryAB [5] = molecular target: T1, R120G cryAB; test: Biolayer interferometry (Octet Red); assay type: binding; conditions: biotinylated cryAB on streptavidin-coated pins, equilibrium association data
Description: Measuring affinity for the test protein by biolayer interferometry (Octet Red) allows for the identification of false positives. Briefly, biotinylated cryAB is immobilized to streptavidin-coated pins and equilibrium association data across a hundred-fold concentration range is analyzed to generate the apparent KD. To control for nonspecific binding, the response of a biocytin-blocked pin is subtracted from each sensorgram.

[6] = R120G cryAB 15 μM, compound 100 μM

## CC(C)CCC[C@@H](C)[C@H]1CC[C@H]2[C@@H]3CC=C4C[C@@H](O)CC[C@]4(C)[C@H]3CC[C@]12C [5-cholesten-3b-ol]
R120G cryAB [1]
  ACTIVITY (shift in thermal stability at 100 μM): −1.1 °C

## C[C@H](CCCC(C)(C)O)[C@H]1CC[C@H]2[C@@H]3CC=C4C[C@@H](O)CC[C@]4(C)[C@H]3CC[C@]12C [5-cholesten-3b,25-diol]
R120G cryAB [1]
  ACTIVITY (shift in thermal stability at 100 μM): −2.0 °C
R120G cryAB [2]; [6]
  amyloid formation (electron microscopy): dramatically suppressed amyloid formation
  opacity of the R120G cryAB mixture (visual inspection): reduced the opacity
R120G cryAB [2]; pre-formed amyloids
  aggregation of pre-formed R120G cryAB amyloids: reversed the aggregation
cryAB
  aggregation of cryAB: significantly reduced the aggregation of cryAB
  cryAB solubility: improved cryAB solubility
[3]
  cryAB solubility: significantly improved cryAB solubility
  lens transparency: improved lens transparency
  rescued cataract phenotypes (treated mice): 10/15
R120G cryAB [4]
  binding site on R120G cryAB: binds a groove across the cryAB dimer interface
α-crystallin; Age 66 days
  Percent difference in area between untreated and treated eyes, Mean: 177.2%
  Percent difference in area between untreated and treated eyes, Median: −20.2%
α-crystallin; Age 79 days
  Percent difference in area between untreated and treated eyes, Mean: 98.1%
  Percent difference in area between untreated and treated eyes, Median: 98.1%
α-crystallin; Age 184 days
  Percent difference in area between untreated and treated eyes, Mean: 61.4%
  Percent difference in area between untreated and treated eyes, Median: 61.4%
α-crystallin; Age 192 days
  Percent difference in area between untreated and treated eyes, Mean: 22.7%
  Percent difference in area between untreated and treated eyes, Median: 55.8%
α-crystallin; Age 200 days
  Percent difference in area between untreated and treated eyes, Mean: 38.7%
  Percent difference in area between untreated and treated eyes, Median: 31.8%
α-crystallin; Age 266 days
  Percent difference in area between untreated and treated eyes, Mean: 1376.3%
  Percent difference in area between untreated and treated eyes, Median: 679.0%
α-crystallin; All ages
  Percent difference in area between untreated and treated eyes, Mean: 381.2±974.6% and 381.2%
  Percent difference in area between untreated and treated eyes, Median: 63.3%
α-crystallin; eye drops 5 mM three times a week for two weeks, Wilcoxon signed rank
  area under the curve of α-crystallin, drug treated eyes versus fellow untreated eyes: statistically significantly higher
R120G cryAB [5]
  Kd: 10.1 ± 4.4 µM

## CC(C)CCC[C@@H](C)[C@H]1CC[C@H]2[C@@H]3CC[C@H]4C[C@@H](O)CC[C@]4(C)[C@H]3CC[C@]12C [5a-cholestan-3b-ol-6-one, (2R,5S,7S,15R)-5-hydroxy-2,15-dimethyl-14-(6-methylheptan-2-yl)tetracyclo [8.7.0.0^{2,7}.0^{11,15}] heptadecan-8-one]
R120G cryAB [1]
  ACTIVITY (shift in thermal stability at 100 μM): −3.0 °C

## CC(C)CCC[C@@H](C)[C@H]1CC[C@H]2[C@@H]3CC=C4C[C@@H](O)CC[C@]4(C)[C@H]3CC[C@]12C [cholesterol, reference compound]
R120G cryAB [1]; focused sterol collection
  activity in DSF: inactive
R120G cryAB [2]; [6]
  amyloid formation (electron microscopy): not

## C[C@]12CCC(=O)C[C@H]1CC[C@@H]1[C@@H]2CC[C@]2(C)[C@@H](O)CC[C@@H]12 [etiocholan-17b-ol-3-one]
R120G cryAB [1]
  ACTIVITY (shift in thermal stability at 100 μM): +1.7 °C
